Patent US20040229934A1, “Method of reducing type 2 diabetes in high risk patients” (priority 2002, published 2004)

Assays:
[1] = test system: patients older than 55 years without known diabetes but with vascular disease; test: Heart Outcomes Prevention Evaluation (HOPE) trial: new diagnosis of diabetes; format: in vivo; settings: for New Diabetes With Glycated Hemoglobin ≧110% ULN, RR (95% CI) / New Diabetes With Oral Agents or Insulin and Glycated Hemoglobin ≧110% ULN, RR (95% CI) / New Diabetes With Oral Agents or Insulin, RR (95% CI) / New Diabetes, RR (95% CI): vs placebo
Description: The design of the Heart Outcomes Prevention Evaluation (HOPE) trial has been described in detail in previous publications. Briefly, individuals who were 55 years or older with no evidence of left ventricular dysfunction or heart failure and who had evidence of vascular disease or who had diabetes and 1 other risk factor were eligible as long as they had no indication or contraindication to receiving an ACE-inhibitor. The study was conducted in […] in 19 countries from 1994 to 1999. All patients provided written informed consent. Of 10576 eligible patients who participated in a run-in period during which they received 2.5 mg ramipril once daily for 1 week followed by matching placebo for 10 to 14 days, 1035 (9.8%) were excluded from randomization (3.2% for side effects, 3.7% for lack of consent). […] This Example focuses primarily on the latter group of patients. Of these patients, 5720 were randomized to receive up to 10 mg of ramipril once per day or equivalent placebo. One hundred sixty-seven patients who were randomized to receive a low dose (2.5 mg/day) of ramipril as part of the Study to Evaluate Carotid Ultrasound changes with Ramipril and Vitamin E (SECURE). All randomized patients were also randomized to receive 400 IU of Vitamin E or placebo. Follow-up visits occurred at 1 month and 6 months after randomization and then every 6 months (mean follow-up of 4.5 years). At each visit, we documented whether the diagnosis of diabetes had been made since the last visit. The primary outcome of this analysis is a new diagnosis of diabetes recorded on the basis of self-report. […] Hemoglobin A1c (HbA1c) levels and medications used among those diagnosed as having diabetes were also recorded. The HbA1c, levels were determined locally. Values higher than 110% of the upper limit of normal for each laboratory were considered to be biochemical confirmation of diabetes. Survival curves utilizing the Kaplan Meier and log-rank procedures were used to describe and compare the results in the 2 treatment groups. Because of the factorial design, all analyses were stratified for randomization to vitamin E or placebo. Subgroup analyses were conducted using tests of interaction in the Cox regression model. Design, Setting and Participants. The randomized, controlled Heart Outcomes Prevention Evaluation trial of 5720 patients older than 55 years without known diabetes but with vascular disease who were followed up for a mean of 4.5 years. The study included 267 hospitals in 19 countries and was conducted between 1994 and 1999. Intervention. Patients were randomly assigned to receive ramipril, up to 10 mg/d (n=2837), or I Main Outcome Measure. Diagnosis of diabetes determined from self-report at follow-up visits every 6 months, compared between the 2 groups.

patients with diabetes = test: HOPE trial: HbA1c levels among the patients with diabetes; format: in vivo; settings: serial annual recordings, first 2 years
Description: The Study to Evaluate Carotid Ultrasound changes in patients treated with Ramipril and vitamin E (SECURE) in which fasting glucose increased more with placebo (15.8 mg/dL [0.41 mmols]) than with ramipril (9.6 mg/dL (0.25 mmols]; P=0.03). Among the patients with diabetes in the HOPE study, there was a significant reduction in HbA1c levels during serial annual recordings occurred during the first 2 years (absolute difference, 0.2%). In the UK Prospective Diabetes Study (UKPDS) and in the Captopril Prevention Project, patients randomized to receive ACE inhibitors had lower levels of HbA1c or less development of diabetes compared with those taking β-blockers or diuretics. However, it is not clear whether the differences in development of diabetes observed in these studies are due to a protective effect of ACE inhibitors or an adverse effect of β-blockers or diuretics.

[2] = controlling for primary events and development of MA or ON
[3] = ramipril up to 10 mg/d, n=2837, mean follow-up 4.5 years

CCOC(=O)[C@H](CCc1ccccc1)N[C@@H](C)C(=O)N1[C@H](C(=O)O)C[C@@H]2CCC[C@@H]21 [ramipril]
RR, footnote | | (New Diabetes With Oral Agents or Insulin and Glycated Hemoglobin ≧110% ULN): new diabetes with patient taking glucose-lowering therapy [1, 2]: | |Controlling for primary events and development of MA or ON, new diabetes with patient taking glucose-lowering therapy had a 0.52 RR (95% CI, 35-0.78).
RR, footnote § (New Diabetes With Oral Agents or Insulin): new diabetes with patient taking glucose-lowering therapy [1, 2]: §Controlling for primary events and development of MA or ON, new diabetes with patient taking glucose-lowering therapy had a 0.58 RR (95% CI, 42-0.79).
RR, footnote † (New Diabetes): new diabetes with glycated hemoglobin 110% [1, 2]: †Controlling for primary events and development of MA or ON, new diabetes with glycated hemoglobin 110% had a 0.67 RR (95% CI, 0..52-0.86).
RR, footnote ‡ (New Diabetes With Glycated Hemoglobin ≧110% ULN): new diabetes with patient taking glucose-lowering therapy [1, 2]: ‡Controlling for primary events and development of MA or ON, new diabetes with patient taking glucose-lowering therapy had a 0.58 RR (95% CI, 44-0.88).
proportion diagnosed with diabetes receiving an oral glucose lowering agent or insulin ([1]; ramipril group): 2.1%
proportion of patients diagnosed to have diabetes and a documented glycated hemoglobin of 110% or more above the upper limit of normal ([1]; ramipril group): 1.8%
proportion with all criteria (diabetes, glycated hemoglobin, glucose-lowering therapy) ([1]; ramipril group): 1.3%
relative risk [RR] of new diagnosis of diabetes ([1]; ramipril group vs placebo group): 0.66
individuals who reported a new diagnosis of diabetes (number) [1, 3]: 102 and One hundred and two
individuals who reported a new diagnosis of diabetes (proportion) [1, 3]: 3.6%
RR for diabetes in the subgroup who never took diuretics or β-blockers during the study ([1]; ramipril vs placebo): 0.62
RR, all criteria (both) ([1]; ramipril vs placebo): 0.51
RR, diabetes with oral glucose lowering agent or insulin (initiation of glucose-lowering therapy) ([1]; ramipril vs placebo): 0.56
RR, diagnosis of diabetes and glycated hemoglobin 110% or more ([1]; ramipril vs placebo): 0.60
New Diabetes With Glycated Hemoglobin ≧110% ULN, number of patients ([1]; stratum: no new MA or ON): 42
New Diabetes With Glycated Hemoglobin ≧110% ULN, proportion (in parentheses) ([1]; stratum: no new MA or ON): 1.7
New Diabetes With Oral Agents or Insulin and Glycated Hemoglobin ≧110% ULN, number of patients ([1]; stratum: no new MA or ON): 30
New Diabetes With Oral Agents or Insulin and Glycated Hemoglobin ≧110% ULN, proportion (in parentheses) ([1]; stratum: no new MA or ON): 1.2
New Diabetes With Oral Agents or Insulin, number of patients ([1]; stratum: no new MA or ON): 45
New Diabetes With Oral Agents or Insulin, proportion (in parentheses) ([1]; stratum: no new MA or ON): 1.8
New Diabetes, number of patients ([1]; stratum: no new MA or ON): 82
New Diabetes, proportion (in parentheses) ([1]; stratum: no new MA or ON): 9.3
New Diabetes With Glycated Hemoglobin ≧110% ULN, RR (95% CI) ([1]; stratum: no new MA or ON): 0.66 (0.48-0.98)
New Diabetes With Oral Agents or Insulin and Glycated Hemoglobin ≧110% ULN, RR (95% CI) ([1]; stratum: no new MA or ON): 0.80 (0.38-0.84)
New Diabetes With Oral Agents or Insulin, RR (95% CI) ([1]; stratum: no new MA or ON): 0.56 (0.39-0.81)
New Diabetes, RR (95% CI) ([1]; stratum: no new MA or ON): 0.87 (0.51-0.89)
New Diabetes With Glycated Hemoglobin ≧110% ULN, number of patients ([1]; stratum: no primary event): 45
New Diabetes With Glycated Hemoglobin ≧110% ULN, proportion (in parentheses) ([1]; stratum: no primary event): 1.8
New Diabetes With Oral Agents or Insulin and Glycated Hemoglobin ≧110% ULN, number of patients ([1]; stratum: no primary event): 32
New Diabetes With Oral Agents or Insulin and Glycated Hemoglobin ≧110% ULN, proportion (in parentheses) ([1]; stratum: no primary event): 1.9
New Diabetes With Oral Agents or Insulin, number of patients ([1]; stratum: no primary event): 54
New Diabetes With Oral Agents or Insulin, proportion (in parentheses) ([1]; stratum: no primary event): 2.2
New Diabetes, number of patients ([1]; stratum: no primary event): 93
New Diabetes, proportion (in parentheses) ([1]; stratum: no primary event): 3.8
New Diabetes With Glycated Hemoglobin ≧110% ULN, RR (95% CI) ([1]; stratum: no primary event): 0.81 (0.42-0.89)
New Diabetes With Oral Agents or Insulin and Glycated Hemoglobin ≧110% ULN, RR (95% CI) ([1]; stratum: no primary event): 0.61 (0.33-.78)
New Diabetes With Oral Agents or Insulin, RR (95% CI) ([1]; stratum: no primary event): 0.58 (0.42-0.82)
New Diabetes, RR (95% CI) ([1]; stratum: no primary event): 0.69 (0.53-0.91)
New Diabetes With Glycated Hemoglobin ≧110% ULN, number of patients ([1]; stratum: with new MA or ON): 10
New Diabetes With Glycated Hemoglobin ≧110% ULN, proportion (in parentheses) ([1]; stratum: with new MA or ON): 2.8
New Diabetes With Oral Agents or Insulin and Glycated Hemoglobin ≧110% ULN, number of patients ([1]; stratum: with new MA or ON): 6
New Diabetes With Oral Agents or Insulin and Glycated Hemoglobin ≧110% ULN, proportion (in parentheses) ([1]; stratum: with new MA or ON): 1.7
New Diabetes With Oral Agents or Insulin, number of patients ([1]; stratum: with new MA or ON): 14
New Diabetes With Oral Agents or Insulin, proportion (in parentheses) ([1]; stratum: with new MA or ON): 3.9
New Diabetes, number of patients ([1]; stratum: with new MA or ON): 20
New Diabetes, proportion (in parentheses) ([1]; stratum: with new MA or ON): 5.6
New Diabetes With Glycated Hemoglobin ≧110% ULN, RR (95% CI) ([1]; stratum: with new MA or ON): 0.47 (0.23-0.98)
New Diabetes With Oral Agents or Insulin and Glycated Hemoglobin ≧110% ULN, RR (95% CI) ([1]; stratum: with new MA or ON): 0.32 (0.13-0.79)
New Diabetes With Oral Agents or Insulin, RR (95% CI) ([1]; stratum: with new MA or ON): 0.61 (0.32-1.16)
New Diabetes, RR (95% CI) ([1]; stratum: with new MA or ON): 0.85 (0.38-1.12)
New Diabetes With Glycated Hemoglobin ≧110% ULN, number of patients ([1]; stratum: with primary event): 7
New Diabetes With Glycated Hemoglobin ≧110% ULN, proportion (in parentheses) ([1]; stratum: with primary event): 1.9
New Diabetes With Oral Agents or Insulin and Glycated Hemoglobin ≧110% ULN, number of patients ([1]; stratum: with primary event): 4
New Diabetes With Oral Agents or Insulin and Glycated Hemoglobin ≧110% ULN, proportion (in parentheses) ([1]; stratum: with primary event): 1.1
New Diabetes With Oral Agents or Insulin, number of patients ([1]; stratum: with primary event): 5
New Diabetes With Oral Agents or Insulin, proportion (in parentheses) ([1]; stratum: with primary event): 1.3
New Diabetes, number of patients ([1]; stratum: with primary event): 9
New Diabetes, proportion (in parentheses) ([1]; stratum: with primary event): 2.4
New Diabetes With Glycated Hemoglobin ≧110% ULN, RR (95% CI) ([1]; stratum: with primary event): 0.59 (0.24-1.43)
New Diabetes With Oral Agents or Insulin and Glycated Hemoglobin ≧110% ULN, RR (95% CI) ([1]; stratum: with primary event): 0.64 (0.17-1.72)
New Diabetes With Oral Agents or Insulin, RR (95% CI) ([1]; stratum: with primary event): 0.42 (0.15-1.14)
New Diabetes, RR (95% CI) ([1]; stratum: with primary event): 0.48 (0.21-0.98)
results among subgroups with different risk factors for developing diabetes (FIG. 2) ([1]; waist to hip ratio, BMI, hypertension history, β-blockers or diuretics at randomization): consistent
reduction in HbA1c levels, absolute difference (patients with diabetes): 0.2%

Vitamin E
effect on diabetes compared with placebo ([1]; 400 IU of Vitamin E, factorial design): did not differ
